# From ChEMBL document CHEMBL3879892, “Small molecule inhibition of PDZ-domain interaction” (2011)
# The source made the active and inactive calls. The rule behind the calls is not given here.
# What was measured:
# NCI-H460 = assay: Inhibition of Dvl PDZ domain interaction with Fz protein in human NCI-H460 cells assessed as induction of apoptosis at 10 uM after 3 days by annexin V-FITC staining-based flow cytometry (reference value: 7.59 to 10.24%); format: cell-based; set-up: scale not given: the % may be the effect or the level left
# LOX = assay: Inhibition of Dvl PDZ domain interaction with Fz protein in human LOX cells assessed as induction of apoptosis at 10 uM after 3 days by annexin V-FITC staining-based flow cytometry (reference value: 8.81 to 10.85%); format: cell-based; set-up: scale not given: the % may be the effect or the level left
# [1] = Antitumor activity against human NCI-H460 cells xenografted in immune deficient nude mouse assessed as tumor growth inhibition at 50 mg/kg, ip administered for 14 days measured after 2 weeks post last dose relative to control; format: functional; settings: 336 h, read-out: TGI
# [2] = biological target: T1, Membrane-associated guanylate kinase, WW and PDZ domain-containing protein 3 (Homo sapiens) (UniProt Q5TCQ9); assay: Inhibition of fluorescein labeled PFDEDQHTQITWV-COOH interaction with GST-fused MAGI-3 second PDZ domain (unknown origin) expressed in Escherichia coli BL21 (DE3) by fluorescence polarization assay
# T1 sequence (whole entry): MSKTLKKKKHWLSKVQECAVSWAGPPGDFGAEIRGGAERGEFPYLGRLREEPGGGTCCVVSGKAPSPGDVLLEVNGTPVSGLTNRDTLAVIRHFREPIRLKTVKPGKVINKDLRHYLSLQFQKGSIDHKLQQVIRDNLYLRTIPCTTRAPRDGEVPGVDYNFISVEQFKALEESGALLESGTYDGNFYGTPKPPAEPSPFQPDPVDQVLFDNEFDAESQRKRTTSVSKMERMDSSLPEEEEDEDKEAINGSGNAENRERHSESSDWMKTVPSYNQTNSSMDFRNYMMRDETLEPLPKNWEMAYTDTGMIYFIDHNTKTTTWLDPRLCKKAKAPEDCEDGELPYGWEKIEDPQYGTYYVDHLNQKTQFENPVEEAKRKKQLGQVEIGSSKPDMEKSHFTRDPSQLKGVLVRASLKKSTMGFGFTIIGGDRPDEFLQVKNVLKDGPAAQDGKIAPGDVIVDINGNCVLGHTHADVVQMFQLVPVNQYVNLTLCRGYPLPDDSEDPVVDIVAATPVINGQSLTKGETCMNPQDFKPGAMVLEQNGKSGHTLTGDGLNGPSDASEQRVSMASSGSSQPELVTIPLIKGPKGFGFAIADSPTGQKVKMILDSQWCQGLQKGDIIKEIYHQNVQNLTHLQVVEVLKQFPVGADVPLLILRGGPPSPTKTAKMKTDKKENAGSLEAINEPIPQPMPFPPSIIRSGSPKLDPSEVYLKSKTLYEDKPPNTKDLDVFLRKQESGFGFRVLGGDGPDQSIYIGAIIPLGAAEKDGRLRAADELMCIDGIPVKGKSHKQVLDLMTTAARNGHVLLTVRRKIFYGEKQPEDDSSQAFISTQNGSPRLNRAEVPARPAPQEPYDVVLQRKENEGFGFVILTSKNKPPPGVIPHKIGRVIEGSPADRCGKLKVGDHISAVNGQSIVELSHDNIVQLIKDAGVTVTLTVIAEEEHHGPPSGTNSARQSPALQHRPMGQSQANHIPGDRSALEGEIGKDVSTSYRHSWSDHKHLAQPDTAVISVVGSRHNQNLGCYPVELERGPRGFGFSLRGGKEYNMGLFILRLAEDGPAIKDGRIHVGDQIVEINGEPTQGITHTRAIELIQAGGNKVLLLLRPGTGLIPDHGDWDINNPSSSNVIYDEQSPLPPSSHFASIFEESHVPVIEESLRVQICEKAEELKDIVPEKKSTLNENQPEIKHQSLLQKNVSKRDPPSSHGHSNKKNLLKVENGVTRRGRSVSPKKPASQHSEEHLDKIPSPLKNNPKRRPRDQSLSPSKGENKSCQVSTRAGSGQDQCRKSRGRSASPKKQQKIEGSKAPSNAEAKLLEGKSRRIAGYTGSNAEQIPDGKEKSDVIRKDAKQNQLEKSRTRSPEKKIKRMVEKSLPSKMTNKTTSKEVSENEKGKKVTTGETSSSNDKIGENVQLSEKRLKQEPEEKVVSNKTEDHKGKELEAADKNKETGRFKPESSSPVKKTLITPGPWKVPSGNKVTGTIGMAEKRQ
# [3] = Antitumor activity against human LOX cells xenografted in immune deficient nude mouse assessed as tumor growth inhibition at 50 mg/kg, ip administered for 14 days measured after 2 weeks post last dose relative to control; format: functional; settings: 336 h, read-out: TGI
SMILES,Activity (NCI-H460) [%],Activity (LOX) [%],inhibition in vivo at 50 mg/kg [1] [%],inhibition [2],inhibition in vivo at 50 mg/kg [3] [%]
Cc1cc2[nH]c(C(O)CCc3ccccc3)c(CCc3ccccc3)c2cc1C(=O)O (centres undefined),36.7,34.7,,,
Cc1cc2[nH]c(C(O)c3ccccc3)c(CCCc3ccccc3)c2cc1C(=O)O (centres undefined),37,65.3,,,
CCCCC(O)c1[nH]c2cc(C)c(C(=O)O)cc2c1CCc1ccccc1 (centres undefined),14.6 to 28.3,13.4 to 18.5,20 to 34,Active,66 to 82
